Source: patent US8912162B2, “Parenteral formulations of elacytarabine derivatives” (Clavis Pharma ASA, priority 2010, dated 2014)

Key:
[1] = Solubility of elacytarabine in water, phosphate buffer and soybean oil based emulsions; assay type: physicochemical
From the text: Nevertheless, formulation of a therapeutically effective amount of the poorly soluble derivatives of formula (I) into a pharmaceutical composition suitable for parenteral administration represents a problem. For the sake of intravenous administration of the said derivatives, the composition of the excipients should be selected so that the said derivatives are solubilised. The cytarabine derivatives of formula (I) are amphiphilic and have poor solubility both in water and in oils. This limits the choice of potential excipients that can solubilise them.

[2] = tested on: acute myeloid leukemia (AML); experiment: Phase II study of single agent elacytarabine as second salvage therapy; assay type: in vivo, patients
Procedure: The formulation described in example 1 was administered to 61 patients in a phase II study of single agent elacytarabine as second salvage therapy for acute myeloid leukemia (AML). […] The response rate was 15%. The median overall survival was 5.3 months versus 1.5 months in the historical control. The median survival for the responders was 13.5 months. The 6 month survival rate was 44%.

[3] = Plasma concentration of elacytarabine, Ara-C and Ara-U in patients (FIG. 2); assay type: in vivo; conditions: average values for 61 patients
From the text: FIG. 2: Plasma concentration of elacytarabine, Ara-C and Ara-U (deamination metabolite of Ara-C), average values for 61 patients.

[4] = tested on: Cis-platin resistant cells (NHIK 3025/DDP); conditions: found earlier; cited from earlier work
[5] = tested on: MDR resistant cells (A549); conditions: A549, found earlier; cited from earlier work

solubility ([1]; aqueous buffer, phosphate buffer pH 7.4 at 25° C.): < 1 µg/mL
solubility ([1]; deionised water, 25 °C, water): < 0.1 µg/mL
dissolution in soybean oil based emulsions ([1]; earlier formulation studies): did not dissolve appropriately
exposure to elacytarabine compared to cytarabine (Ara-C) [3]: ≥ 10 fold
Structure (SMILES): CCCCCCCC/C=C/CCCCCCCC(=O)OC[C@H]1O[C@@H](n2ccc(N)nc2=O)[C@@H](O)[C@@H]1O [elacytarabine, 5′-O-(trans-9″-octadecenoyl)-1-β-D-arabinofuranosylcytosine]
tolerability ([2]; also by elderly patients): well tolerated
side effects ([2]; phase II AML patients): predictable and manageable
effect against resistant cells compared with corresponding non-resistant cell line [4]: same effect
effect against resistant cells compared with corresponding non-resistant cell line [5]: same effect
